Measurements as given in PMC3470935 (Journal of medicinal chemistry, 2012).
Substitutions are numbered along the chain they refer to.

Columns and labels:
AKR1C1-3 = assay: Isoform profile across the AKR1C enzymes; format: biochemical, human; conditions: 1-acenaphthenol oxidation, NAD+, pH 9.0
AKR1C3 = biological target: T1, AKR1C3 (Homo sapiens, UniProt P42330); assay: Spectrophotometric inhibition assay, 1-acenaphthenol oxidation with NAD+; format: biochemical; conditions: pH 9.0, screening at 400 μM
T1 sequence (P42330 1-323): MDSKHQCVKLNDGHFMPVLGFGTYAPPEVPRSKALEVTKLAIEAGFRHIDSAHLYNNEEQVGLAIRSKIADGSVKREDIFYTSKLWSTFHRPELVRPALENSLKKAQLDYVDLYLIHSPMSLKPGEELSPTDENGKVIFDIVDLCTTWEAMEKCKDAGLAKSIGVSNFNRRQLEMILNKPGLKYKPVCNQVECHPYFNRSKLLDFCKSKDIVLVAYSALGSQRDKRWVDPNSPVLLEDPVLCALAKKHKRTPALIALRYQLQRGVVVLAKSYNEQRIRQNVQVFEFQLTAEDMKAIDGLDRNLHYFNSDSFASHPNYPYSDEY

AKR1C1 = biological target: T2, AKR1C1 (Homo sapiens, UniProt Q04828); assay: as above; format: biochemical; conditions: pH 9.0, screening at 400 μM
T2 sequence (Q04828 1-323): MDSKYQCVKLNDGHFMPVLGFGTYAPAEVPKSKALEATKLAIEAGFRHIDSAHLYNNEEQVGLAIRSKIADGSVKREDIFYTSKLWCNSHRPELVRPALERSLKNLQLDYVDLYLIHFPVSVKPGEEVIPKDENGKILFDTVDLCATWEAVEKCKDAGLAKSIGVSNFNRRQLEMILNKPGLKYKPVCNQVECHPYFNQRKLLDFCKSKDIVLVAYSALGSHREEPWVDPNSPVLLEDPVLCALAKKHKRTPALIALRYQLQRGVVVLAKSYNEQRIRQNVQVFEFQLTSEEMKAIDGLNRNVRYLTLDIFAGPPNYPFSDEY

AKR1C2 = biological target: T3, AKR1C2 (Homo sapiens, UniProt P52895); assay: as above; format: biochemical; conditions: pH 9.0, screening at 400 μM
T3 sequence (P52895 1-323): T2 sequence (Q04828 1-323) with T38V, R47H, L54V, C87S, V151M, R170H, Q172L

Q: `NC(=O)c1ccccc1/N=C/c1cccc(O)c1` [Compound 5, 2-(3-hydroxybenzylideneamino)benzamide] was tested. Which “inhibition profile / isoform selectivity on AKR1C enzymes (in words)” value (shortened to “inhibition profile / isoform selectivity”) (AKR1C1-3) did it give?
A: The value was “selective AKR1C3 inhibitor”.

Q: For `NC(=O)c1ccccc1NC(=O)c1ccncc1` [Compound 7], which “inhibition profile / isoform selectivity” value (AKR1C1-3) is on record?
A: The value was “low inhibitory effect”.

Q: With `O=C(CSc1ncnc2[nH]cnc12)Nc1ccccn1` [Compound 25, 2-((9H-purin-6-yl)thio)-N-(pyridin-2-yl)acetamide] as the compound, how does the “inhibition profile / isoform selectivity” value (AKR1C1-3) read?
A: The value was “selective AKR1C1 inhibitor”.

Q: How did the “inhibition profile / isoform selectivity” value (AKR1C1-3) turn out when `O=C(NCc1cc(=O)[nH]cn1)c1cc2ccccn2n1` [Compound 27, N-((6-oxo-1,6-dihydropyrimidin-4-yl)methyl)pyrazolo[1,5-a]pyridine-2-carboxamide] was run?
A: Its value is “selective AKR1C3 inhibitors”.

Q: With `Cc1ccc(NC(=O)c2cccnc2)c(C(=O)O)c1` [Compound 10] as the compound, how does the “inhibition of AKR1C3 (in words)” value (AKR1C3) read?
A: Its value is “weak inhibitor”.

Q: And the “inhibition of AKR1C1 (in words)” value (AKR1C1)?
A: Its value is “weak inhibitor”.

Q: For `CC(=O)Nc1ccc(C(C#N)c2ccccc2)cc1` (stereo not shown) [Compound 24, N-(4-(cyano(phenyl)methyl)phenyl)acetamide], which “inhibition of AKR1C2 (in words)” value (AKR1C2) is on record?
A: The value was “moderate inhibitor”.

Q: `Cc1oc(C(N)=O)cc1COc1ccccc1C(N)=O` [Compound 4, 4-((2-carbamoylphenoxy)methyl)-5-methylfuran-2-carboxamide] was tested. Which “inhibition of AKR1C3 (in words)” value (AKR1C3) did it give?
A: Its value is “moderate inhibitor”.

Q: And the “inhibition of AKR1C2 (in words)” value (AKR1C2)?
A: The value was “moderate inhibitor”.

Q: And the “inhibition profile / isoform selectivity” value (AKR1C1-3)?
A: The value was “partially selective towards AKR1C1”.

Q: With `O=C(O)c1ccc(CNCc2ccccn2)cc1` [Compound 18] as the compound, how does the “inhibition of AKR1C3 (in words)” value (AKR1C3) read?
A: Its value is “moderate”.

Q: Which “inhibition of AKR1C3 (in words)” value (AKR1C3) does the source give for `O=C(O)c1cc(NC(=O)c2ccccc2F)ccc1O` [Compound 1, 5-(2-fluorobenzamido)salicylic acid] here?
A: Its value is “moderate”.

Q: With `Cc1cccc(C(=O)Nc2ccccc2C(N)=O)c1` [Compound 8] as the compound, how does the “inhibition profile / isoform selectivity” value (AKR1C1-3) read?
A: The value was “low inhibitory effect”.

Q: How did the “inhibition of AKR1C2 (in words)” value (AKR1C2) turn out when `Cc1cc(C(=O)Nc2ccc(O)c(C(=O)O)c2)oc1C` [Compound 3, 5-(4,5-dimethylfuran-2-carboxamido)-salicylic acid] was run?
A: The value was “very low inhibition”.

Q: And the “inhibition profile / isoform selectivity” value (AKR1C1-3)?
A: Its value is “selective AKR1C3 inhibitor”.

Q: What about the “inhibition of AKR1C1 (in words)” value (AKR1C1) of the same compound?
A: Its value is “no observable inhibition”.
